Several values for one entry are separate records, joined by “and”; a condition that tells them apart may be missing. Equal values may be shown once. Read-outs that look alike come from different tables or passages of the source.

These results are taken from US20080058299A1, “Method of treating or preventing bone deterioration or osteoporosis” (priority 2005, published 2008).

The subject of one data set is postmenopausal women. The note with it: 32 postmenopausal women, average 19 months, versus 19 placebo-treated women; cited from earlier work.
Data set [1] relates to hypogonadal men. The data set can be described thus: Bone mineral density by DXA in hypogonadal men. Type of data set: in vivo. As for the experimental part:
(§1) Ten men with severe and untreated hypogonadism due to known disease were entered into the study.
(§2) All subjects were assessed by dual energy X-ray absorptiometry (DXA) and magnetic resonance microimaging (μMRI) at 0, 6, 12 and 24 months. The hypogonadal subjects were also assessed for markers of bone metabolism at 0, 3, and 6 months.
Bone mineral density (BMD) of the anterior-posterior lumbar spine (L1-L4) and of the right hip was determined by DXA using Hologic densitometers (Hologic, Inc., Bedford, Mass.), a QDR-4500A for the first year of the study and a Dephi A for the second. […] Scans from the same subject were evaluated by the “compare” feature of the DXA instrument. The coefficients of variation for long-term instrument stability, as assessed by daily measurements of a phantom, were <0.9%.
For all parameters, changes from 0 to 24 months were tested by multivariate analysis of variance, one factor repeated measures design. If the change from 0 to 24 months was significant, pair-wise comparisons of each treatment time (6, 12, and 24 months) against pretreatment were determined with Dunnett's test. Missing values were imputed by the method of last observation carried forward. A type I error rate of 0.05 was used for determining statistical significance. SAS statistical software, version 9.1 (SAS Institute, Inc., Cary, N.C.) was used for all analysis.

For data set [2] the following is noted: cited from earlier work.
Data set [3] in a line: Serum testosterone and estradiol concentrations in hypogonadal men treated with AndroGel for 24 months. Type of data set: in vivo. An excerpt:
(§3) Ten men with severe and untreated hypogonadism due to known disease were entered into the study. […] All ten subjects had secondary hypogonadism. Eight subjects had pituitary adenomas, one had pinealoma, and one had Kallmann's syndrome. Hypogonadism developed in adulthood in nine. […] The estimated duration of hypogonadism was 2-30 years (median, 5 years). […] Of the two who had been treated, one had not been treated for four years and the other for 20 years before entering the study. The median age at entry was 51 years (range 31-78).
Estradiol was measured by ultrasensitive immunoradiometric assay (DSL, Webster, Tex.). Intra- and interassay coefficients of variation were <10%.

Data set [4] deals with hypogonadal men. The data set can be described thus: Magnetic resonance microimaging (μMRI) of trabecular architecture of the right distal tibia. Type of data set: in vivo.
Text: as §3, §2
Magnetic resonance microimaging (μMRI) of the right distal tibia was performed using a Signa 1.5 Tesla MR scanner (GE Medical Systems, Milwaukee, Wis.) and a custom-designed receive-only radiofrequency phased array surface coil. The coil was placed on the anterior right tibia, the edge 1 cm proximal to the midpoint of the medial malleolus, and the right foot was immobilized. Twenty-eight images were obtained to map trabecular architecture. Song H K, et al., Magn. Reson. Med., 41:947-53 (1999). […] The data were processed using a custom-designed program written in IDL (Interactive Data Language, Boulder, Colo.). Wehrli F W, et al., J. Bone Miner. […] The data were motion-corrected, filtered and Fourier transformed. To ensure that the same volume was analyzed at each time point for each subject, the images corresponding to the 0, 6, 12, and 24 month examinations of each subject were matched for volume of interest by identifying similar trabecular features. After the volume of interest was selected manually on each of the matched slices by tracing a line approximately 1 mm from the endocortical boundary on the anterior half of the distal metaphysis, bone volume fraction maps were computed. Subvoxel processing yielded a voxel size of 69×69×103 μm^3. Hwang S N, et al., Magn. Reson. Med., 47 (2002). A cylindrical core measuring 6.85 mm in diameter was obtained from the center of the volume of interest. (FIG. 3).
Digital topological analysis of the trabecular network was performed on the entire volume of interest. Gomberg BR, et al., IEEE Trans. […] The topological class of each image voxel was determined, yielding the density of surface voxels, curve voxels, and voxels part of mutual junctions. The topological analysis began with binarization of the three-dimensional images, followed by skeletonization, which converted the plate-like elements of the trabecular network to surfaces and the rodlike elements to curves. Each voxel was then classified as belonging to a surface, curve, or junction between these voxel types. […] One composite parameter was the surface-to-curve ration, the ratio of all surface voxels to all curve voxels. The higher the ratio, the more intact in the trabecular network, and vice versa. The second composite parameter was the topological erosion index, a ratio of parameters that are expected to increase upon trabecular deterioration (Curve edge and curve interior voxels, surface and profile edges, and curve-curve junction voxels) to those expected to decrease (surface interior voxels and surface-surface junctions). The lower the topological erosion index, the smaller the degree to which the trabecular network has deteriorated. Trabecular thickness was determined by an independent program based on the concept of fuzzy distance transform. Saha P K, et al., IEEE Trans.
For all parameters, changes from 0 to 24 months were tested by multivariate analysis of variance, one factor repeated measures design. If the change from 0 to 24 months was significant, pair-wise comparisons of each treatment time (6, 12, and 24 months) against pretreatment were determined with Dunnett's test. Missing values were imputed by the method of last observation carried forward. […]

For data set [5], the system named is hypogonadal men. The data set is described as follows: Markers of bone metabolism in hypogonadal men. The data set is classed as in vivo. As to the method:
as §1, §2
After an overnight fast, blood and a timed 2-hour urine sample were collected. Serum and urine samples were frozen at −70° C. The markers and methods of assay were as follows: bone-specific alkaline phosphatase (BAP), immunoradiometric assay (Tandem-R Ostase, Beckman-Coulter, Inc., Fullerton, Calif.); osteoprotegerin, enzyme-linked immunosorbent assay (American Laboratory Products Company, Windham, N.H.); intact N-terminal propeptide of type I procollagen (PINP), radioimmunoassay, (Orion Diagnostica UniQ, IDS, Inc. Fountain Hills, Ariz.); cross-linked N-telopeptides of type I collagen (NTx), enzyme-linked immunosorbent assay (Osteomark, Ostex International, Inc. Seattle, Wash.). For each assay, all samples were measured in a single assay run.

Setting [6] is: distal tibia, 24 Months of treatment.

`CC[C@H](C)[C@H](NC(=O)[C@H](CCC(=O)O)NC(=O)[C@H](CO)NC(=O)[C@@H](NC(=O)[C@@H](N)CO)C(C)C)C(=O)N[C@@H](CCC(N)=O)C(=O)N[C@@H](CC(C)C)C(=O)N[C@@H](CCSC)C(=O)N[C@@H](Cc1cnc[nH]1)C(=O)N[C@@H](CC(N)=O)C(=O)N[C@@H](CC(C)C)C(=O)NCC(=O)N[C@@H](CCCCN)C(=O)N[C@@H](Cc1cnc[nH]1)C(=O)N[C@@H](CC(C)C)C(=O)N[C@@H](CC(N)=O)C(=O)N[C@@H](CO)C(=O)N[C@@H](CCSC)C(=O)N[C@@H](CCC(=O)O)C(=O)N[C@@H](CCCN=C(N)N)C(=O)N[C@H](C(=O)N[C@@H](CCC(=O)O)C(=O)N[C@@H](Cc1c[nH]c2ccccc12)C(=O)N[C@@H](CC(C)C)C(=O)N[C@@H](CCCN=C(N)N)C(=O)N[C@@H](CCCCN)C(=O)N[C@@H](CCCCN)C(=O)N[C@@H](CC(C)C)C(=O)N[C@@H](CCC(N)=O)C(=O)N[C@@H](CC(=O)O)C(=O)N[C@H](C(=O)N[C@@H](Cc1cnc[nH]1)C(=O)N[C@@H](CC(N)=O)C(=O)N[C@@H](Cc1ccccc1)C(=O)O)C(C)C)C(C)C` [rhPTH]: in the data set with postmenopausal women, the “trabecular connectivity, in words” value is listed as “significantly increased their trabecular connectivity”.

Consider `C[C@]12CC[C@H]3[C@@H](CCC4=CC(=O)CC[C@@]43C)[C@@H]1CC[C@@H]2O` [Testosterone], for which, in the data set on hypogonadal men [1], the “Femoral Neck BMD, % Change 0-24 months” value is 2.1 ± 5.1%; the “Femoral Neck BMD, Change 0-24 months” value is recorded as 0.016 ± 0.038 g/cm^2; the “Intertrochanteric BMD, % Change 0-24 months” value is given as 4.4 ± 3.7%; the “Intertrochanteric BMD, Change 0-24 months” value worked out at 0.049 ± 0.037 g/cm^2. In the data set with hypogonadal men [1], the “Spine BMD, % Change 0-24 months” value came out at 7.4 ± 5.1%; the “Spine BMD, Change 0-24 months” value came to 0.069 ± 0.053 g/cm^2; the “Total Hip BMD, % Change 0-24 months” value came to 3.8 ± 3.4%; the “Total Hip BMD, Change 0-24 months” value was determined as 0.034 ± 0.029 g/cm^2. Further, in the data set on hypogonadal men [1], the “Trochanter BMD, % Change 0-24 months” value turned out to be 4.0 ± 4.7%; the “Trochanter BMD, Change 0-24 months” value was found to be 0.027 ± 0.030 g/cm^2; the “Ward's Triangle BMD, % Change 0-24 months” value was 5.1 ± 10.1%; the “Ward's Triangle BMD, Change 0-24 months” value is reported as 0.028 ± 0.060 g/cm^2. Further, in the data set on hypogonadal men [1] (24 Months of treatment), the “Femoral Neck BMD” value is on record as 0.828 ± 0.145 g/cm^2, the “Intertrochanteric BMD” value was 1.206 ± 0.205 g/cm^2, the “Spine BMD” value came out at 1.000 ± 0.219 g/cm^2 and the “Total Hip BMD” value is recorded as 0.994 ± 0.162 g/cm^2. Further, in the data set on hypogonadal men [1] (24 Months of treatment), the “Ward's Triangle BMD” value is recorded as 0.616 ± 0.172 g/cm^2. In addition, in the data set on hypogonadal men [1] (listed as testosterone), the “Spine BMD, % Change 0-24 months” value was found to be 7.4%. For the same molecule, the “bound to protein in the blood” value in data set [2] (circulating testosterone) is given as 98%. Also, in data set [2] (in men), the “share bound weakly to albumin” value is 60% and the “share of binding to sex hormone binding globulin (SHBG)” value is “approximately 40%”. Further, the concentration at 3 months in data set [3] (male, human, serum, topical, AndroGel 5-10 g/day, month 3) was 6.56 ng/mL and 22.8 nM. Besides, the “serum testosterone concentration (in words)” value in data set [3] (throughout the 24 months of treatment) was “remained normal”. In the data set with hypogonadal men [4] (distal tibia), the “Bone Volume Fraction, % Change 0-24 months” value was determined as 5.0 ± 4.2%; the “Bone Volume Fraction, Change 0-24 months” value was 0.005 ± 0.004; the “Trabecular Thickness, % Change 0-24 months” value was determined as 1.5 ± 0.5%; the “Trabecular Thickness, Change 0-24 months” value is on record as 1.7 ± 0.6 μ. In the data set with hypogonadal men [4] (setting [6]), the “Bone Volume Fraction” value is 0.103 ± 0.011 and the “Trabecular Thickness” value turned out to be 120.5 ± 3.8 μ. In addition, the “Bone Volume Fraction, % Change 0-24 months” value with hypogonadal men [4] (distal tibia, listed as testosterone) worked out at 5%. Also, the “increase of trabecular thickness during treatment” value with hypogonadal men [4] (starting at 6 months) is around 2%. Moreover, the “bone-specific alkaline phosphatase (BAP), in words” value in the data set on hypogonadal men [5] (0 to 6 months) is given as “did not change”. In the data set on hypogonadal men [5] (3 months of treatment), the “serum intact N-terminal propeptide of type I procollagen (PINP)” value worked out at 71.3 ± 32.1 µg/L. This molecule also registered a Serum osteoprotegerin in the data set on hypogonadal men [5] (6 months of treatment) of 4.29 ± 0.82 pmol/L. Also, the “Urine NTx, in words” value in the data set on hypogonadal men [5] (baseline to 6 months) is recorded as “did not change”.
